According to PubChem BioAssay (NCI):
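48-hour exposure; five concentrations; linearly interpolated endpoints. GI50 is the concentration that inhibits growth by half. TGI denotes the concentration required for complete inhibition of growth.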 Where a SMILES comes first, the peptide text is derived from it. [ ]: non-standard residue; d: D form. The star is where a group is joined. Bn2Val = CC(C)[C@@H](C(=O)*)N(Cc1ccccc1)Cc1ccccc1; NH(4-Cl-benzyl) = Clc1ccc(CN*)cc1; NMeV = CN[C@H](C(=O)O)C(C)C; dNMeA = CN[C@H](C)C(=O)O

Assays:
Assay in all cases: NCI-60 cell line screen, 48 h
A498 renal = test system: A498 renal
NCI-H226 lung = test system: NCI-H226 lung
RPMI-8226 leukemia = test system: RPMI-8226 leukemia
SK-MEL-5 melanoma = test system: SK-MEL-5 melanoma
SK-OV-3 ovarian = test system: SK-OV-3 ovarian
COLO 205 colon = test system: COLO 205 colon
UO-31 renal = test system: UO-31 renal
HL-60(TB) leukemia = test system: HL-60(TB) leukemia
MALME-3M melanoma = test system: MALME-3M melanoma
OVCAR-4 ovarian = test system: OVCAR-4 ovarian

| SMILES | GI50 (A498 renal) | TGI (A498 renal) | GI50 (NCI-H226 lung) | TGI (NCI-H226 lung) | GI50 (RPMI-8226 leukemia) | TGI (RPMI-8226 leukemia) | GI50 (SK-MEL-5 melanoma) | TGI (SK-MEL-5 melanoma) | GI50 (SK-OV-3 ovarian) | TGI (SK-OV-3 ovarian) | TGI (COLO 205 colon) | TGI (UO-31 renal) | TGI (HL-60(TB) leukemia) | TGI (MALME-3M melanoma) | TGI (OVCAR-4 ovarian) |
| --- | --- | --- | --- | --- | --- | --- | --- | --- | --- | --- | --- | --- | --- | --- | --- |
| CCN=C1C=CC(=C(c2ccc(N(CC)CC)cc2)c2ccc(N(CC)CC)cc2)c2ccccc21 | 0.0692 µM | 0.444 µM | 0.064 µM | 1.61 µM | 0.0233 µM | 0.0702 µM | 0.0363 µM | 0.133 µM | 0.0823 µM | 0.601 µM |  |  |  |  |  |
| C=CCC1C(O[Si](C)(C)C(C)(C)C)C(CO[Si](C)(C)C(C)(C)C)OC1n1ccc(=O)[nH]c1=O (stereo not drawn) |  | 3.68 µM |  | 3.02 µM |  | 4.89 µM |  | 2.91 µM |  |  | 3.13 µM | 2.83 µM |  |  |  |
| CC(C)(C)OC(=O)NCC(CNC(=O)OC(C)(C)C)c1nc(C(N)=O)cs1 |  | > 100 µM |  | > 100 µM |  |  |  | > 100 µM |  | > 100 µM | > 100 µM | > 100 µM | > 100 µM | > 100 µM | > 100 µM |
| CC(=O)Nc1ccc(OC/C(N)=N/NC(=O)c2ccncc2)cc1 |  | > 100 µM |  |  |  | > 100 µM |  |  |  | > 100 µM | > 100 µM |  | > 100 µM |  | > 100 µM |
| CCCSc1ccc2[nH]c(N3C(=O)/C(=C/c4ccccc4)N=C3c3ccccc3)cc2c1 |  | > 50 µM |  |  |  | 42.9 µM |  | 44.4 µM |  |  | 24.6 µM | > 50 µM | 30.2 µM | > 50 µM | > 50 µM |
| CCOC(=O)Nn1c(CC#N)nnc1Cc1ccccc1 |  |  |  | > 100 µM |  | > 100 µM |  | > 100 µM |  |  |  | > 100 µM | > 100 µM | > 100 µM |  |
| Cn1c(=O)oc2nc(-c3ccccc3)cc(C(F)(F)F)c21 |  | 55.7 µM |  | > 100 µM |  | > 100 µM |  | > 100 µM |  | > 100 µM | > 100 µM | > 100 µM |  |  | > 100 µM |
| CC(C)[C@H](NC(=O)[C@H](C(C)C)N(Cc1ccccc1)Cc1ccccc1)C(=O)N(C)[C@H](C(=O)N1CCC[C@H]1C(=O)N(C)[C@H](C)C(=O)NCc1ccc(Cl)cc1)C(C)C (Bn2Val-V[NMeV]P[dNMeA]-{NH(4-Cl-benzyl)}) |  |  |  | 9.66 µM |  | > 100 µM |  | 13.4 µM |  | > 100 µM |  |  | 3.97 µM | > 29.7 µM | > 100 µM |
| COC[C@@H](N=Cc1ccc([N+](=O)[O-])cc1)C(C)C |  |  |  |  |  | > 100 µM |  |  |  | > 100 µM |  | > 100 µM |  | > 100 µM | > 100 µM |
| CC(C)C(C/C=C1\CC(CO)(COC(=O)C2CCCCC2)OC1=O)C(C)C (stereo not drawn) |  | > 100 µM |  | 38.3 µM |  |  |  | > 100 µM |  | > 100 µM | 23.6 µM | 32.1 µM |  | 35.5 µM | 36 µM |
| O=C(Cc1ccc(Cl)c(Cl)c1)NCC1(N2CCCCC2)CCCCC1 |  | > 100 µM |  |  |  | > 100 µM |  |  |  | > 100 µM |  | > 100 µM | > 100 µM | 47.2 µM | > 100 µM |
| CCOP(=O)(O)CN1CCNCCN(CP(=O)(O)OCC)CCNCC1 |  | > 100 µM |  | > 100 µM |  | > 100 µM |  | > 100 µM |  | > 100 µM | > 100 µM | > 100 µM | > 100 µM |  | > 100 µM |
| CC(Oc1ccccc1Cl)C(=O)NN1C(=O)CSC1c1ccccc1 (stereo not drawn) |  | > 100 µM |  | > 100 µM |  | > 100 µM |  | > 100 µM |  | > 100 µM | > 100 µM | > 100 µM | 83.7 µM |  | > 100 µM |
| C=C(C)CC1(O[Si](C)(C)C)C(=O)C(OCC)=C1OCC (stereo not drawn) |  | > 100 µM |  | > 100 µM |  |  |  | > 100 µM |  | > 100 µM | > 100 µM | > 100 µM | > 100 µM | > 100 µM | > 100 µM |
| Cc1cc(OC(=O)NCn2cc(-c3ccccc3)nn2)ccc1Cl |  |  |  | > 100 µM |  | > 100 µM |  | > 100 µM |  |  | > 100 µM |  | > 100 µM | > 100 µM | > 100 µM |
| C=CCP(=O)(CC=C)C(Cl)Cl |  |  |  | > 100 µM |  | > 100 µM |  | > 100 µM |  | > 100 µM | > 100 µM | > 100 µM | > 100 µM |  | > 100 µM |
| COc1ccc(OC)c(SC(CC(=O)c2ccccc2)c2ccccc2)c1 (stereo not drawn) |  |  |  | 31.9 µM |  |  |  | 28.7 µM |  | 40.3 µM | 37.3 µM | 24.7 µM | > 100 µM | 38.5 µM | > 100 µM |
| Cn1c(-c2ccc(/C=N/NC(=S)N/N=C/c3ccc(-c4c[n+]5ccsc5n4C)cc3)cc2)c[n+]2ccsc12 |  |  |  |  |  | > 100 µM |  | > 100 µM |  | > 100 µM | > 100 µM | > 100 µM | > 100 µM |  | > 100 µM |
| CC1(C)CC(=O)C2(CC(CSc3ccccc3)C(CS(=O)(=O)c3ccccc3)C2)C(=O)C1 (stereo not drawn) |  | > 100 µM |  | > 100 µM |  | > 100 µM |  | > 100 µM |  | > 100 µM | > 100 µM | > 100 µM |  |  | > 100 µM |
| CCN(CC)C(=S)SS(=O)(=O)c1cccc(N)c1 |  | > 100 µM |  | > 100 µM |  | > 100 µM |  | > 100 µM |  | > 100 µM | > 100 µM | > 100 µM |  | > 100 µM | > 100 µM |
| COc1cc2cc(C(=O)N3CC(COS(C)(=O)=O)c4ccc(O)cc43)[nH]c2c(OC)c1OC (stereo not drawn) |  |  |  | 0.000531 µM |  |  |  | < 0.0001 µM |  |  | 0.00194 µM | < 0.0001 µM |  |  |  |
| CC(C)(C)n1c(=O)[nH]c(=O)n1C(C)(C)C |  | > 100 µM |  | > 100 µM |  |  |  | > 100 µM |  | > 100 µM | > 100 µM | > 100 µM | > 100 µM | > 100 µM | > 100 µM |
| COc1cc(C2C(Cl)C(=O)N2c2c(C)n(C)n(-c3ccccc3)c2=O)ccc1O (stereo not drawn) |  |  |  | 53.8 µM |  | 50.1 µM |  | 53.7 µM |  | 80.2 µM | 34.3 µM | 32.9 µM | 64.1 µM | 61.9 µM | 37.6 µM |
| O=C(Nc1ccccc1C(=O)NCc1ccccc1)/C(=C/c1ccccc1)NC(=O)c1ccccc1 |  | > 100 µM |  | > 100 µM |  | > 100 µM |  | > 100 µM |  | > 100 µM | > 100 µM | > 100 µM | > 100 µM |  | > 100 µM |
| Nc1nc(Cl)cc(NC23CC4CC(CC(C4)C2)C3)n1 |  | > 100 µM |  | > 100 µM |  | > 100 µM |  |  |  | > 100 µM | > 100 µM | > 100 µM |  | > 100 µM | > 100 µM |
